In ChEMBL document CHEMBL5625222, “Design, synthesis, and biological evaluation of 1,6-naphthyridine-2-one derivatives as novel FGFR4 inhibitors for the treatment of colorectal cancer” (Eur J Med Chem, 2023):
The source made the active and inactive calls. The calls are words filed in the database; no cut-off is given here.

Experiments:
[1] = biological target: Fibroblast growth factor receptor 2 (Homo sapiens, UniProt P21802); test: Inhibition of FGFR2 (unknown origin) kinase activity
[2] = biological target: Fibroblast growth factor receptor 3 (Homo sapiens, UniProt P22607); test: Inhibition of FGFR3 (unknown origin) kinase activity
Fibroblast growth factor receptor 3, sequence (P22607 whole entry): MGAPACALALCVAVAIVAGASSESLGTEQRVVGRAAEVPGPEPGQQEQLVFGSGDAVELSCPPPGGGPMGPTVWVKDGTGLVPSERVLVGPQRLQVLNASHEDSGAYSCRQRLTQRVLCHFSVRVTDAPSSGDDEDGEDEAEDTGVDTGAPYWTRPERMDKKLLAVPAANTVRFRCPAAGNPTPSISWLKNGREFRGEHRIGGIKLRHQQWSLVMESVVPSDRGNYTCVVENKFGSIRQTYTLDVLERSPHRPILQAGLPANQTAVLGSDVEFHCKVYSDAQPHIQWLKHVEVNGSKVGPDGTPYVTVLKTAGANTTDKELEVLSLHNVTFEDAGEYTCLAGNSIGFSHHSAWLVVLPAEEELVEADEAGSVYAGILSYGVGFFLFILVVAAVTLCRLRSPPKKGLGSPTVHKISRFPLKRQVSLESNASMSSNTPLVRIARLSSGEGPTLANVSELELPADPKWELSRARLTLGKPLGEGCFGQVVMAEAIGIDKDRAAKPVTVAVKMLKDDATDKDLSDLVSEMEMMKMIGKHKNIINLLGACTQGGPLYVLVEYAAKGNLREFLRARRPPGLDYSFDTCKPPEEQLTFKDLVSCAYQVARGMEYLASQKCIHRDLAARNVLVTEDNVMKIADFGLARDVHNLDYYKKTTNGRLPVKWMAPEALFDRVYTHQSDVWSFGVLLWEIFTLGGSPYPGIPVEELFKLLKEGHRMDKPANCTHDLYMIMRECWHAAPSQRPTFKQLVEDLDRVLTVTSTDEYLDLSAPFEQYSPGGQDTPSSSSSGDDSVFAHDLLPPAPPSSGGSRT

[3] = test system: HCT-116; test: Antiproliferative activity against human HCT-116 cells assessed as inhibition of colony formation incubated for 2 weeks by crystal violet staining method; type: functional, cell-based
[4] = test system: SW480; test: Antiproliferative activity against human SW480 cells assessed as inhibition of cell growth incubated for 48 hrs by EdU staining method; type: functional, cell-based
[5] = test system: HCT-116; test: Induction of cell cycle arrest in human HCT-116 cells assessed as accumulation of cells at G2/M phase incubated for 48 hrs by propidium iodide staining based flow cytometry; type: functional
[6] = test system: SW480; test: Induction of cell cycle arrest in human SW480 cells assessed as accumulation of cells at G2/M phase incubated for 48 hrs by propidium iodide staining based flow cytometry; type: functional
[7] = test system: HCT-116; test: Induction of cell cycle arrest in human HCT-116 cells assessed as downregulation of CDC2 expression at 1.5 to 6 uM by immunoblotting analysis; type: functional, cell-based; details: dose 1.5-6 µM
[8] = test system: SW480; test: Induction of cell cycle arrest in human SW480 cells assessed as downregulation of CDC2 expression at 1.5 to 6 uM by immunoblotting analysis; type: functional, cell-based; details: dose 1.5-6 µM
[9] = test system: RKO; test: Induction of cell cycle arrest in human RKO cells assessed as downregulation of cyclin B1 expression at 1.5 to 6 uM by immunoblotting analysis; type: functional, cell-based; details: dose 1.5-6 µM
[10] = test system: HCT-116; test: Anti-migration activity in human HCT-116 cells assessed as change in FAK distribution at 3 to 12 uM by immunofluorescence assay; type: functional, cell-based; details: dose 3-12 µM
[11] = test system: HCT-116; test: Anti-migration activity in human HCT-116 cells assessed as change in N-cad expression at 3 to 12 uM by Western blotting analysis; type: functional, cell-based; details: dose 3-12 µM
[12] = test system: HCT-116; test: Anti-migration activity in human HCT-116 cells assessed as change in FAK expression at 3 to 12 uM by Western blotting analysis; type: functional, cell-based; details: dose 3-12 µM
[13] = test system: SW480; test: Anti-migration activity in human SW480 cells assessed as change in N-cad expression at 3 to 12 uM by Western blotting analysis; type: functional, cell-based; details: dose 3-12 µM
[14] = test system: RKO; test: Anti-migration activity in human RKO cells assessed as loss of actin cytoskeletal fibers at 3 to 12 uM by immunofluorescence assay; type: functional, cell-based; details: dose 3-12 µM
[15] = test system: RKO; test: Anti-migration activity in human RKO cells assessed as change in N-cad expression at 3 to 12 uM by Western blotting analysis; type: functional, cell-based; details: dose 3-12 µM
[16] = test system: RKO; test: Anti-migration activity in human RKO cells assessed as change in FAK expression at 3 to 12 uM by Western blotting analysis; type: functional, cell-based; details: dose 3-12 µM
[17] = Toxicity in ICR mouse assessed as change in body weight at 60 mg/kg,po administrated for 1 week; type: organism-based; details: in vivo, 168 h, time 1 weeks
[18] = Toxicity in ICR mouse assessed as change in heart weight at 20 mg/kg,po administrated for 1 week; type: organism-based; details: in vivo, 168 h, time 1 weeks
[19] = Toxicity in ICR mouse assessed as change in heart weight at 60 mg/kg,po administrated for 1 week; type: organism-based; details: in vivo, 168 h, time 1 weeks
[20] = Toxicity in ICR mouse assessed as change in lung weight at 20 mg/kg,po administrated for 1 week; type: organism-based; details: in vivo, 168 h, time 1 weeks
[21] = Toxicity in ICR mouse assessed as change in kidney weight at 20 mg/kg,po administrated for 1 week; type: organism-based; details: in vivo, 168 h, time 1 weeks
[22] = Hepatotoxicity in ICR mouse assessed as change in serum ALT level at 20 mg/kg,po administrated for 1 week; type: toxicity, organism-based; details: in vivo, 168 h, time 1 weeks
[23] = Toxicity in ICR mouse assessed as histopathological change in liver at 20 mg/kg,po administrated for 1 week by hematoxylin and eosin staining analysis; type: organism-based; details: in vivo, 168 h, time 1 weeks
[24] = Toxicity in ICR mouse assessed as histopathological change in kidney at 60 mg/kg,po administrated for 1 week by hematoxylin and eosin staining analysis; type: organism-based; details: in vivo, 168 h, time 1 weeks
[25] = Toxicity in BALB/c mouse xenografted with human HCT-116 cells assessed as change in body weight at 10 mg/kg,ip administrated for 2 weeks; type: organism-based; details: in vivo, 336 h
[26] = Toxicity in BALB/c mouse xenografted with human HCT-116 cells assessed as change in lung weight at 20 mg/kg,ip administrated for 2 weeks; type: organism-based; details: in vivo, 336 h
[27] = Toxicity in BALB/c mouse xenografted with human HCT-116 cells assessed as change in liver weight at 10 mg/kg,ip administrated for 2 weeks; type: organism-based; details: in vivo, 336 h
[28] = Toxicity in BALB/c mouse xenografted with human HCT-116 cells assessed as change in liver weight at 20 mg/kg,ip administrated for 2 weeks; type: organism-based; details: in vivo, 336 h
[29] = Toxicity in BALB/c mouse xenografted with human HCT-116 cells assessed as change in spleen weight at 20 mg/kg,ip administrated for 2 weeks; type: organism-based; details: in vivo, 336 h
[30] = Toxicity in BALB/c mouse xenografted with human HCT-116 cells assessed as change in kidney weight at 20 mg/kg,ip administrated for 2 weeks; type: organism-based; details: in vivo, 336 h
[31] = test system: HCT-116; test: Antitumor activity against human HCT-116 cells xenografted in BALB/c mouse assessed as chromatin condensation at 10 mg/kg,ip administrated for 2 weeks by hematoxylin and eosin staining based analysis; type: functional, organism-based
[32] = Toxicity in BALB/c mouse xenografted with human HCT-116 cells assessed as histopathological change in liver at 10 mg/kg,ip administrated for 2 weeks by hematoxylin and eosin staining based analysis; type: organism-based; details: in vivo, 336 h
[33] = Toxicity in BALB/c mouse xenografted with human HCT-116 cells assessed as histopathological change in liver at 20 mg/kg,ip administrated for 2 weeks by hematoxylin and eosin staining based analysis; type: organism-based; details: in vivo, 336 h
[34] = Toxicity in BALB/c mouse xenografted with human HCT-116 cells assessed as histopathological change in kidney at 20 mg/kg,ip administrated for 2 weeks by hematoxylin and eosin staining based analysis; type: organism-based; details: in vivo, 336 h
[35] = Toxicity in BALB/c mouse xenografted with human HCT-116 cells assessed as change in serum creatinine level at 20 mg/kg,ip administrated for 2 weeks; type: organism-based; details: in vivo, 336 h
[36] = Toxicity in BALB/c mouse xenografted with human HCT-116 cells assessed as change in serum AST level at 10 mg/kg,ip administrated for 2 weeks; type: organism-based; details: in vivo, 336 h
[37] = test system: HCT-116; test: Antitumor activity against human HCT-116 cells xenografted in BALB/c mouse assessed as downregulation of N-cad expression in tumor at 20 mg/kg,ip administrated for 2 weeks by Western blotting analysis; type: functional, organism-based
[38] = test system: HCT-116; test: Antitumor activity against human HCT-116 cells xenografted in BALB/c mouse assessed as downregulation of FAK expression in tumor at 10 mg/kg,ip administrated for 2 weeks by Western blotting analysis; type: functional, organism-based
[39] = test system: HCT-116; test: Antitumor activity against human HCT-116 cells xenografted in BALB/c mouse assessed as downregulation of FAK phosphorylation in tumor at 20 mg/kg,ip administrated for 2 weeks by Western blotting analysis; type: functional, organism-based
[40] = test system: HCT-116; test: Antitumor activity against human HCT-116 cells xenografted in BALB/c mouse assessed as downregulation of FGFR4 signalling pathway in tumor at 20 mg/kg,ip administrated for 2 weeks by Western blotting analysis; type: functional, organism-based
[41] = test system: SW480; test: cells; details: Homo sapiens, SW480, 48 h
Description: Antiproliferative activity against human SW480 cells assessed as inhibition of cell growth incubated for 48 hrs by MTT assay

Fibroblast growth factor receptor 2, sequence (P21802 whole entry): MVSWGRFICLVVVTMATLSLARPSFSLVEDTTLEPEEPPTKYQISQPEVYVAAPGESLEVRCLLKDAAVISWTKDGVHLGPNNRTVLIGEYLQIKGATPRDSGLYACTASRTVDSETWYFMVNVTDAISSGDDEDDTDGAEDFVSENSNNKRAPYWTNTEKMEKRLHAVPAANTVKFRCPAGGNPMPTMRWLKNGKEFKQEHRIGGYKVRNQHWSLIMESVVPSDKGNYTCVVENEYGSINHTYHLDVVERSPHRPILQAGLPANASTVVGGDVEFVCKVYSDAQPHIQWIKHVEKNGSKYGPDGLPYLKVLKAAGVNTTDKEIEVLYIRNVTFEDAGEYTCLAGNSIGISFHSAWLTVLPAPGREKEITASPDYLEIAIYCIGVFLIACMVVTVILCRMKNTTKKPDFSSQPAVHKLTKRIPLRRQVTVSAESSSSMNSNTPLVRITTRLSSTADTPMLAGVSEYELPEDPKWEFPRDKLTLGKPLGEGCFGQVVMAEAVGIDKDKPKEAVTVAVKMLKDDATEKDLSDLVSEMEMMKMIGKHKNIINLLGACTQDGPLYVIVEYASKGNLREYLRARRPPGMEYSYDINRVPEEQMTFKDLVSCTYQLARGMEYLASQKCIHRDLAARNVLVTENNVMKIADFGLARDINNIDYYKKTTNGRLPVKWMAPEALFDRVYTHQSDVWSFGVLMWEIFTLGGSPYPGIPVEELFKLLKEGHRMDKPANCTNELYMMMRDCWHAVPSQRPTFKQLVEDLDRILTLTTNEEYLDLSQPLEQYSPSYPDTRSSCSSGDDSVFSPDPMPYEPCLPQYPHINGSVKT

In the case of C=CC(=O)NCCCn1c(=O)c(-c2c(Cl)c(OC)cc(OC)c2Cl)cc2cnc(Nc3c(C)cccc3NC(=O)C=C)cc21, the IC50 [1] is reported as 528 nM, the IC50 [2] is reported as 225 nM and the Activity [3] is reported as “Dose-Dependent Effect”. The Activity [4] was “Dose-Dependent Effect”, the Activity [5] was “Dose-Dependent Effect” and the Activity [6] was “Dose-Dependent Effect”. For the same compound, the Activity [7] was “Active”, the Activity [8] was “Active” and the Activity [9] was “Active”. For the same compound, the Activity [10] was “Active”, the Activity [11] was “inactive” and the Activity [12] was “inactive”. For the same compound, the Activity [13] was “inactive”, the Activity [14] was “Active” and the Activity [15] was “inactive”. The Activity [16] was “inactive”, the Activity [17] was “Non-Toxic” and the Activity [18] was “Non-Toxic”. The Activity [19] was “Non-Toxic”, the Activity [20] was “Non-Toxic” and the Activity [21] was “Non-Toxic”. For the same compound, the Activity [22] was “Non-Toxic”, the Activity [23] was “Non-Toxic” and the Activity [24] was “Non-Toxic”. For the same compound, the Activity [25] was “Non-Toxic”, the Activity [26] was “Non-Toxic” and the Activity [27] was “Non-Toxic”. The Activity [28] was “Non-Toxic”, the Activity [29] was “Non-Toxic” and the Activity [30] was “Non-Toxic”. The Activity [31] was “Active”, the Activity [32] was “Non-Toxic” and the Activity [33] was “Non-Toxic”. The Activity [34] was “Non-Toxic”, the Activity [35] was “Non-Toxic” and the Activity [36] was “Non-Toxic”. The Activity [37] was “Active”, the Activity [38] was “Active” and the Activity [39] was “Active”. For the same compound, the Activity [40] was “Active” and the IC50 [41] was 6990 nM.
